The source of these data is patent publication US5399565A, “Pyrazolidinone CCK and gastrin antagonists and pharmaceutical formulations therof” (priority 1993, dated 1995).

Where two headings read alike, the source gives them in different places.

One data set is described as follows: pKa by titration. Conditions: first or only value; for pKa: 2:1 dmf:h2o, titration pKa.
The target in data set [1] is T1, peripheral type CCK receptors in rat pancreas (Rattus norvegicus, UniProt P30551).
T1 construct: Pancreas was obtained from male Sprague-Dawley rats; from tissue; host or cells: pancreas membranes of male Sprague-Dawley rats
T1 sequence (P30551 1-444): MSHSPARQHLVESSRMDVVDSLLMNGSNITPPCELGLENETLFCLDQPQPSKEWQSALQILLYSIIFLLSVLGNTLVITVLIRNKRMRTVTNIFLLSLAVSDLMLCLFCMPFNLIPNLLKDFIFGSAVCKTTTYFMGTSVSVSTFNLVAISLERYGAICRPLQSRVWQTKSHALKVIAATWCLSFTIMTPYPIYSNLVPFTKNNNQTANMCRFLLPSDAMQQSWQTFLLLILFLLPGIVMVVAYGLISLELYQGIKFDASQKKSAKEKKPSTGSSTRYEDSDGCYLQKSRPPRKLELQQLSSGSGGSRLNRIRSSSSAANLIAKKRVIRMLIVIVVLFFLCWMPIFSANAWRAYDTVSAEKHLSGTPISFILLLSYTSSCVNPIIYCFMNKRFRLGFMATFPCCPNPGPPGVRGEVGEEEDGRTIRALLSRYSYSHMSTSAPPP
As to the kind of experiment: Binding to peripheral type CCK receptors in rat pancreas (3H-L-364,718). Conditions: for inhibition at 10 µM: read-out: Pancreas Percent Inhibition; for IC50: rat pancreas. In a few lines:
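Washed pancreatic membranes from male Sprague-Dawley rats (150-200 g) incubated 1 h at room temperature with 0.4-0.6 nM ³H-L-364,718 in 50 mM Tris pH 7.4, 5 mM MgCl2, bacitracin, 5 mM DTT. Bound radioactivity counted after filtration; nonspecific binding defined with 100 nM L-364,718; IC50 determined.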

In a further data set the target is T2, brain CCK receptor (Mus musculus, UniProt P56481).
T2 construct: from tissue; host or cells: forebrain membranes of male CF-1 mice
T2 sequence (P56481 1-453): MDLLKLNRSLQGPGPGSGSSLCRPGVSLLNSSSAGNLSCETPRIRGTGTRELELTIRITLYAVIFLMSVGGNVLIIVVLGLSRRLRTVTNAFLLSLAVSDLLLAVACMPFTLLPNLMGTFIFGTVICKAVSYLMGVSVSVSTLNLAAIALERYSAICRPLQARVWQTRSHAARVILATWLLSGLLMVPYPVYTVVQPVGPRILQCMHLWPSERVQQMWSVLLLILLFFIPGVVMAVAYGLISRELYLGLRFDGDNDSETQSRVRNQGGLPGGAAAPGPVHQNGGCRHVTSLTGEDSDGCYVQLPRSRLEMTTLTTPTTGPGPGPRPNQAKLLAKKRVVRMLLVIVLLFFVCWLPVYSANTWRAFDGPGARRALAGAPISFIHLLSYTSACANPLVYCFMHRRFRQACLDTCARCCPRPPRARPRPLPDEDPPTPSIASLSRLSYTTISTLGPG
As to the kind of experiment: CCK receptor binding, mouse brain membranes (125I-CCK-8 sulfate).

For the next data set, the target named is T3, gastrin receptor (Cavia porcellus, UniProt H0VZC5).
T3 construct: Guinea pig stomach fundus was obtained from male Hartley guinea pigs; from tissue; host or cells: stomach fundus mucosal membranes of male Hartley guinea pigs
T3 sequence (H0VZC5 1-426): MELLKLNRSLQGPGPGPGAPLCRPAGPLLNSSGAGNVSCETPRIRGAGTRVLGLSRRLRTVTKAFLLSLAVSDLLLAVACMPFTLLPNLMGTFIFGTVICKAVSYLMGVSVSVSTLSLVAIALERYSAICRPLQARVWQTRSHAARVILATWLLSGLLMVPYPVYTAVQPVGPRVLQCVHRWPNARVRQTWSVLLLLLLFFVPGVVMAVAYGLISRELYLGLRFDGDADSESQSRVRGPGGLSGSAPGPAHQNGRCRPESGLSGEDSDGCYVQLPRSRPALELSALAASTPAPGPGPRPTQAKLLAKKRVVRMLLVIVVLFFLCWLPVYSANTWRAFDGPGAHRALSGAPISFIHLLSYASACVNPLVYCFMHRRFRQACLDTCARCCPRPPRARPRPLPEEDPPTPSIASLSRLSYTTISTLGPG
As to the kind of experiment: Gastrin binding to guinea pig stomach mucosal membranes (125I-gastrin I). The protocol:
The method used for gastrin binding to guinea pig stomach mucosal membranes was similar to that described by Takeuchi, Speir and Johnson (Am. J. Physiol. 237(3): E284-E294, 1979). Guinea pig stomach fundus was obtained from male Hartley guinea pigs, 300-350 g, and the mucosa was scraped off with a glass slide. The mucosa was homogenized in 50 mM Tris buffer, pH 7.4, containing 1 mM phenylmethanesulfonyl fluoride using a Dounce glass homogenizer, and the suspension was centrifuged at 40,000 g for 10 min. The resulting pellet was resuspended and centrifuged once more, the final pellet was then suspended in 100 ml assay buffer per 1 guinea pig stomach to give a protein concentration of 200-300 μg/200 μl. The assay buffer consisted of 50 mM Tris buffer, pH 7.4, 5 mM MgCl2, 0.14 mg/ml bacitracin, and 1 μg/ml each of leupeptin, chymostatin, aprotinin and pepstatin. Reagent volumes for the assay were the same as those used for CCK binding to brain membranes. The radioactive ligand was 20 pM ^125 I-gastrin I, from DuPont NEN (NEX-176). The samples were incubated 3 hours at room temperature and filtered and counted as described for CCK binding to brain membranes. Compound samples were prepared and IC-50 values were determined as described for the CCK-brain receptor binding. Non-specific binding was determined using 100 nM gastrin I (human synthetic from Sigma Chemical Co.).

[2] abbreviates: mouse brain membranes, read-out: Brain IC50.
Where [3] appears, read: guinea pig stomach mucosal membranes, read-out: Gastrin IC50.

As usually defined, the pKa is the negative logarithm of the acid dissociation constant. The term inhibition denotes the relative decrease from the control value, in per cent. A word on the IC50: it is the concentration needed to halve the response being measured. As to `O=C1NN(C(=O)NCc2ccc(Cl)c(Cl)c2)[C@@H](c2ccccc2)[C@@H]1c1ccccc1` (relative stereo) [Example 7, 1-[(3,4-Dichlorobenzyl)aminocarbonyl]-4,5-diphenyl-3pyrazolidinone], the pKa in “pKa by titration” amounted to 8.4. For the same molecule, the inhibition at 10 µM in data set [1] (at 10 μM) turned out to be 81%. For the same molecule, the IC50 at brain CCK receptor (setting [2]) was 1100 nM.
In the data set “pKa by titration”, `O=C1NN(C(=O)c2cccc(C(F)(F)F)c2)[C@@H](c2ccccc2)[C@@H]1c1ccccc1` (relative stereo) [Example 5] registered a pKa of 7.15. Besides, the inhibition at 10 µM in data set [1] (at 10 μM) is 18%; at brain CCK receptor (at 10 μM, read-out: Brain Percent Inhibition) it was 77%.
On to `C[C@@H](OC(=O)N1NC(=O)[C@@H](c2ccccc2)[C@@H]1c1ccccc1)c1ccccc1` (single isomer, unassigned) [Example 139B], for which the “titration pKa” value in “pKa by titration” (2:1 DMF:H2O, listed as Diastereomer B) is given as 8.6.
Molecule `O=C1NN(c2nc3ccc(Cl)cc3s2)[C@@H](c2ccccc2)[C@@H]1c1ccccc1` (relative stereo) [Example 9, 1-[6-Chloro-2-benzothiazolyl]-4,5-diphenyl-3-pyrazolidinone] registered a pKa in the data set “pKa by titration” of 6.6. Moreover, the inhibition at 10 µM in data set [1] (at 10 μM) worked out at 33%. The IC50 on brain CCK receptor (setting [2]) was determined as 3700 nM.
As to `O=C1NN(C(=O)Nc2ccc3c(c2)CCCC3)[C@H](c2ccccc2)[C@H]1c1ccccc1` (relative stereo) [Example 50], the inhibition at 10 µM in data set [1] (at 10 μM) was found to be 87%. Also, the results for the IC50 at brain CCK receptor (setting [2]) and at gastrin receptor (setting [3]) were 13 nM and 81 nM, respectively.
With `CC(C)(C)c1ccc(NC(=O)N2NC(=O)[C@@H](c3ccccc3)[C@@H]2c2ccccc2)cc1` (relative stereo) [Example 30], the inhibition at 10 µM in data set [1] (at 10 μM) worked out at 49%. The figures for the 50% inhibitory concentration (IC50) at brain CCK receptor (setting [2]) and on gastrin receptor (setting [3]) were 31 nM and 350 nM, respectively.
Turning to `O=C1NN(C(=O)Nc2ccc(Br)cc2)[C@@H](c2cccc(Cl)c2Cl)[C@@H]1c1ccccc1` (relative stereo) [Example 116], the inhibition at 10 µM in data set [1] (at 10 μM) stood at 80%. The results for the half-maximal inhibitory concentration (IC50) at brain CCK receptor (setting [2]) and at gastrin receptor (setting [3]) were 31 nM and 230 nM, respectively.
In the case of `O=C1NN(C(=O)Nc2ccc(C(F)(F)F)cc2)C(c2ccccc2Cl)C1c1ccccc1` (stereo not shown) [Example 110], in data set [1] (at 10 μM), the “Pancreas Percent Inhibition” value worked out at 47%. Further, the results for the IC50 at brain CCK receptor (setting [2]) and at gastrin receptor (setting [3]) were 7 nM and 130 nM, respectively.
Turning to `O=C1NN(C(=O)Nc2ccc(Br)cc2)C(c2ccccc2)C1c1cccc(Br)c1` (stereo not shown) [Example 127], the inhibition at 10 µM in data set [1] (at 10 μM) stood at 73%. The IC50 on brain CCK receptor (setting [2]) is 32 nM; on gastrin receptor (setting [3]), 210 nM.
As for `COc1cccc(C2C(=O)NN(C(=O)Nc3ccc(Br)cc3)C2c2ccccc2)c1` (stereo not shown) [Example 123], the inhibition at 10 µM in data set [1] (at 10 μM) worked out at 23%. Further, the results for the IC50 on brain CCK receptor (setting [2]) and at gastrin receptor (setting [3]) were 68 nM and 690 nM, respectively.
As for `N#Cc1cccc(C2C(c3ccccc3)C(=O)NN2C(=O)Nc2ccc(C(F)(F)F)cc2)c1` (stereo not shown) [Example 111], the inhibition at 10 µM in data set [1] (at 10 μM) was 35%. Moreover, the concentration for half-maximal inhibition (IC50) on brain CCK receptor (Brain IC50, mouse brain membranes) was determined as 20 nM; on gastrin receptor it was 610 nM.
For `CC(C)Oc1cccc(C2C(=O)NN(C(=O)Nc3ccc(Br)cc3)C2c2ccccc2)c1` (stereo not shown) [Example 124], the inhibition at 10 µM in data set [1] (at 10 μM) is 36%. For the same molecule, the concentration for half-maximal inhibition (IC50) at brain CCK receptor (setting [2]) was determined as 150 nM; at gastrin receptor (setting [3]), 730 nM.
The like results for `O=C1NN(C(=O)Nc2ccc(Br)cc2)[C@@H](c2ccccc2Cl)[C@H]1c1ccccc1Cl` (relative stereo) [Example 133A] were, in that order, 55%, 360 nM and 1500 nM.
Taken in the same sequence, the figures for `O=C1NN(C(=O)Nc2ccc(Br)cc2)C(c2ccccc2)C1c1cccc(Cl)c1` (stereo not shown) [Example 126] were 59%, 11 nM and 210 nM.
Taken in the same sequence, the figures for `O=C1NN(C(=O)Nc2ccc(Cl)c(C(F)(F)F)c2)C(c2ccccc2Cl)C1c1ccccc1` (stereo not shown) [Example 120] were 87%, 16 nM and 120 nM.
As for `O=C1NN(C(=S)Nc2ccc3ccccc3c2)[C@@H](c2ccccc2)[C@@H]1c1ccccc1` (relative stereo) [Example 136, 1-[(2-Naphthyl)aminothiocarbonyl]-4,5-diphenyl-3-pyrazolidinone], in “pKa by titration”, the pKa was found to be 5.8. The molecule further gave a half-maximal inhibitory concentration (IC50) in data set [1] of 160 nM.
`NC(=O)c1cccc(C2C(c3ccccc3)C(=O)NN2C(=O)Nc2ccc(Br)cc2)c1` (stereo not shown) [Example 118]: the inhibition at 10 µM in data set [1] (at 10 μM) was 41%. The IC50 on brain CCK receptor (setting [2]) came to 360 nM; on gastrin receptor (setting [3]), 5200 nM.
For `O=C1NN(C(=O)Nc2ccc(Br)cc2)C(c2ccccc2Cl)C1c1ccccc1` (stereo not shown) [Example 114], the inhibition at 10 µM in data set [1] (at 10 μM) came out at 38%. Further, the IC50 at brain CCK receptor (setting [2]) amounted to 20 nM; on gastrin receptor (setting [3]), 360 nM.
Taken in the same sequence, the figures for `O=C1NN(C(=O)Nc2ccc(Br)cc2)C(c2ccccc2)C1c1ccc(Cl)cc1` (stereo not shown) [Example 129] were 69%, 160 nM and 860 nM.
Taken in the same sequence, the figures for `O=C1NN(C(=O)Nc2cnc3ccccc3c2)[C@@H](c2ccccc2)[C@@H]1c1ccccc1` (relative stereo) [Example 92] were 88%, 64 nM and 160 nM.
Take `COc1cccc(C2C(c3ccccc3)C(=O)NN2C(=O)Nc2ccc(C(F)(F)F)cc2)c1` (stereo not shown) [Example 112]: in data set [1] (at 10 μM), the inhibition at 10 µM amounted to 42%. In addition, the values for the IC50 on brain CCK receptor (setting [2]) and at gastrin receptor (setting [3]) were 72 nM and 1400 nM, respectively.
The like results for `CC(C)c1ccc(NC(=O)N2NC(=O)C(c3ccccc3Cl)C2c2ccccc2)cc1` (stereo not shown) [Example 132] were, in that order, 48%, 8 nM and 70 nM.
In the case of `O=C1NN(C(=O)Nc2ccc(Cl)c(C(F)(F)F)c2)[C@@H](c2ccccc2)[C@@H]1c1ccccc1` (relative stereo) [Example 1, 1-[(4-Chloro-3-trifluoromethylphenyl)aminocarbonyl]-4,5-diphenyl-3-pyrazolidinone], the IC50 in data set [1] came out at 190 nM; on brain CCK receptor (setting [2]), 22 nM; on gastrin receptor (setting [3]) it was 150 nM.
Take `C[C@@H](OC(=O)N1NC(=O)[C@@H](c2ccccc2)[C@@H]1c1ccccc1)c1ccccc1` (single isomer, unassigned) [Example 139A]: the pKa in “pKa by titration” was found to be 8.7.
Consider `O=C1NN(C(=O)Nc2ccc3c(c2)CCC3)[C@H](c2ccccc2)[C@H]1c1ccccc1` (relative stereo) [Example 49], for which, in data set [1] (at 10 μM), the inhibition at 10 µM is 40%. Besides, the figures for the IC50 at brain CCK receptor (setting [2]) and at gastrin receptor (setting [3]) were 43 nM and 250 nM, respectively.
